Test results from patent US20080089927A1, “Methods for Coacervation Induced Liposomal Encapsulation and Formulations Thereof” (priority 2006, published 2008).
Like-named read-outs stand apart in the source and are kept apart here.

Experiments:
[1] = Miscibility of amikacin sulfate with ethanol/water; format: physicochemical; details: ethanol/water mixture, aqueous with cosolvent or surfactant or cyclodextrin
[2] = Ternary phase diagram amikacin sulfate-water-ethanol; format: physicochemical; details: 3 parts amikacin sulfate 70 mg/mL in water mixed with 2 parts ethanol
Source text: FIG. 3 depicts a ternary phase diagram of amikacin sulfate—water—ethanol system.
FIG. 3 depicts a ternary phase diagram for an amikacin sulfate—water—ethanol system. The two-phase area under the binodial curve is a zone where the system separates into two phases, a coacervate phase and an equilibrium phase. The area above the binodial curve is a zone where single liquid phase system of amikacin sulfate dissolved in water-ethanol mixture exists. When 3 parts of amikacin sulfate solution in water at 70 mg/mL (point 1) is mixed with 2 parts of ethanol, the resulting mixture has composition (point 2), which spontaneously separates into two phases: coacervate phase rich in amikacin (point C) and equilibrium phase pour in amikacin (point E). Coacervate phase comprises only about 4.5% of total volume and originally forms as small droplets suspended in equilibrium phase. If lipids are present in surrounding solution when coacervates are just formed, they can spontaneously form bilayers around those droplets. During manufacturing it is often desired to limit exposure of the product to high ethanol concentration. For examples, another 3 parts of saline or buffer can be added consequently to the mixture, which shifts composition to the single-phase zone (point 3). […]

solubility ([1]; 27% ethanol, depending on temperature, read-out: amikacin soluble concentration) [mg/mL] | solubility ([1]; 34% ethanol, read-out: solubility limit) [mg/mL] | coacervate phase, share of total volume [2] | SMILES
≥ 15 | < 15 | – | NCC[C@H](O)C(=O)N[C@@H]1C[C@H](N)[C@@H](O[C@H]2O[C@H](CN)[C@@H](O)[C@H](O)[C@H]2O)[C@H](O)[C@H]1O[C@H]1O[C@H](CO)[C@@H](O)[C@H](N)[C@H]1O [amikacin]
– | – | about 4.5% | NCC[C@H](O)C(=O)N[C@@H]1C[C@H](N)[C@@H](O[C@H]2O[C@H](CN)[C@@H](O)[C@H](O)[C@H]2O)[C@H](O)[C@H]1O[C@H]1O[C@H](CO)[C@@H](O)[C@H](N)[C@H]1O.O=S(=O)(O)O.O=S(=O)(O)O [amikacin sulfate]
